Among the data in DBAASP are MIC values, retold here.

Structures are written as SMILES. Converted amounts (≈) assume the structure as drawn.

As a reminder, the MIC is the smallest concentration in the dilution series that meets the test's criterion for growth inhibition. The low end stands for greater potency, the high end for weaker potency.

Some test systems named below: Staphylococcus aureus; Streptococcus sanguinis; Escherichia coli ST131; Citrobacter koseri; Enterococcus faecium; Escherichia coli BL21; Escherichia coli JM109; Pseudomonas aeruginosa; Salmonella enterica; Staphylococcus xylosus; Candida albicans; Escherichia coli 1005.
Common to all, as to test: ≥ marks a high value that may be exact or a test limit, other limits are often not marked, values filed in µg/mL are converted to µM
For assay [1], the system named is Acinetobacter baumannii ATCC 17978.
Assay [2] concerns Enterococcus faecalis ATCC 19433.
Assay [3] has as its system Enterococcus faecalis ATCC 29212.
The test system of assay [4] is Enterococcus faecalis ATCC BAA-2365.
Assay [5] deals with Enterococcus faecium ATCC BAA-2316.
In assay [6] the test system is Escherichia coli NCTC 12923.
Assay [7] relates to Klebsiella pneumoniae NCTC 13368.
Assay [8] has as its system Pseudomonas aeruginosa PAO1.
Assay [9] relates to Staphylococcus aureus ATCC 29213.
For assay [10], the system named is Staphylococcus aureus ATCC 33591.
The subject of assay [11] is Staphylococcus aureus ATCC 43300.
The subject of assay [12] is Staphylococcus aureus ATCC 9144.
The test system of assay [13] is Staphylococcus aureus ATCC BAA-41.
The subject of assay [14] is Staphylococcus aureus USA 300.
The subject of assay [15] is Staphylococcus epidermidis ATCC 12228.
Assay [16] has as its system Escherichia coli ATCC 25922.
Assay [17] concerns Pseudomonas aeruginosa ATCC 27853.
Assay [18] has as its system Pseudomonas aeruginosa ATCC 9027.
Assay [19] deals with Staphylococcus aureus ATCC 19636.
The subject of assay [20] is Staphylococcus aureus ATCC 25923.
Assay [21] has as its system Klebsiella pneumoniae ST258.
In assay [22] the test system is Bifidobacterium adolescentis.
The test system of assay [23] is Klebsiella pneumoniae CCRC 10694.
The subject of assay [24] is Lactobacillus delbrueckii subsp. bulgaricus.
Assay [25] concerns Salmonella typhimurium CCRC 12947.
The test system of assay [26] is Staphylococcus aureus CCRC 12652.
The subject of assay [27] is Staphylococcus aureus CCRC 15211.
Assay [28] deals with Vibrio parahaemolyticus CCRC 10806.
In assay [29] the test system is Candida krusei CGMCC 2.1857.
The subject of assay [30] is Candida parapsilosis CGMCC 2.3989.
The test system of assay [31] is Candida tropicalis CGMCC 2.1975.
Assay [32] has as its system Salmonella enterica subsp. enterica serovar Pullorum ATCC 7913.
Assay [33] concerns Salmonella enterica subsp. enterica serovar Typhimurium ATCC 14028.
For assay [34], the system named is Staphylococcus pseudintermedius.

Turning to `NC(=O)[C@H](Cc1ccccc1)NC(=O)[C@H](Cc1ccccc1)NC(=O)[C@H](Cc1ccccc1)NC(=O)[C@H](Cc1ccccc1)NC(=O)[C@H](Cc1ccccc1)NC(=O)[C@@H](N)Cc1ccccc1` [FFFFFF], the MIC in the assay with Staphylococcus aureus was 14.3 µM (≈ 12.8 µg/mL); in the assay with Streptococcus sanguinis it was 8.3 µM (≈ 7.48 µg/mL).

Take `CC[C@H](C)[C@H](NC(=O)[C@H](C)NC(=O)[C@H](CCCCN)NC(=O)[C@H](CCCN=C(N)N)NC(=O)[C@@H](NC(=O)[C@H](CC(C)C)NC(=O)[C@H](CO)NC(=O)[C@H](Cc1ccccc1)NC(=O)[C@H](CC(C)C)NC(=O)[C@@H](N)Cc1ccccc1)[C@@H](C)CC)C(=O)NCC(=O)NCC(=O)N[C@@H](CC(C)C)C(=O)N[C@H](C(=O)N[C@@H](CO)C(=O)N[C@@H](C)C(=O)N[C@@H](Cc1ccccc1)C(=O)N[C@@H](CCCCN)C(=O)O)[C@@H](C)CC` [FLFSLIRKAIGGLISAFK]: the MIC is 4.04 µM (≈ 8 µg/mL) in assay [1]; 12.5 µM (≈ 24.8 µg/mL) in assay [2]; 10 µM (≈ 19.8 µg/mL) in [3]; 5 µM (≈ 9.91 µg/mL) in assay [4]; 15 µM (≈ 29.7 µg/mL) in assay [5]; not below 64.6 µM in assay [6]. The MIC is not below 64.6 µM in [7]; more than 64.6 µM in [8]; 5 µM (≈ 9.91 µg/mL) in assay [9]; 5 µM (≈ 9.91 µg/mL) in assay [10]; 5 µM (≈ 9.91 µg/mL) in [11]; 8.07 µM (≈ 16 µg/mL) in assay [12]. Further, the figures for the MIC in assay [13], in assay [14] and in assay [15] were 5 µM (≈ 9.91 µg/mL), 16.1 µM (≈ 32 µg/mL) and 2.5 µM (≈ 4.95 µg/mL), respectively.

On to `CC(C)C[C@H](NC(=O)[C@H](C)NC(=O)[C@H](CCCCN)NC(=O)[C@H](CC(C)C)NC(=O)[C@H](Cc1c[nH]c2ccccc12)NC(=O)[C@H](CCCCN)NC(=O)[C@H](CCCN=C(N)N)NC(=O)[C@H](Cc1c[nH]c2ccccc12)NC(=O)[C@H](CCCCN)NC(=O)[C@@H](N)CCCCN)C(=O)N[C@@H](C)C(=O)N[C@@H](CCCCN)C(=O)N[C@@H](CCCCN)C(=O)O` [KKWRKWLKALAKK], for which the MIC in assay [16] is 7.42 µM (≈ 12.5 µg/mL); in assay [17], 14.8 µM (≈ 25 µg/mL); in [18], 14.8 µM (≈ 25 µg/mL); in assay [19], 3.74 µM (≈ 6.3 µg/mL); in assay [20] it was more than 29.7 µM; in assay [9], 29.7 µM (≈ 50 µg/mL).

Turning to `CC(C)C[C@H](NC(=O)[C@H](Cc1c[nH]c2ccccc12)NC(=O)[C@H](CCCCN)NC(=O)[C@H](CC(C)C)NC(=O)[C@H](Cc1c[nH]c2ccccc12)NC(=O)[C@H](CCCCN)NC(=O)[C@H](CCCN=C(N)N)NC(=O)[C@H](Cc1c[nH]c2ccccc12)NC(=O)[C@H](CCCCN)NC(=O)[C@@H](N)CCCCN)C(=O)N[C@@H](C)C(=O)N[C@@H](CCCCN)C(=O)N[C@@H](CCCCN)C(N)=O` [KKWRKWLKWLAKK], the MIC stood at 2 µM (≈ 3.6 µg/mL) in [16], 2 µM (≈ 3.6 µg/mL) in the assay with Escherichia coli ST131 and 4 µM (≈ 7.19 µg/mL) in [21].

As to `CC[C@H](C)[C@H](NC(=O)[C@H](CO)NC(=O)[C@H](CCCCN)NC(=O)[C@H](Cc1c[nH]c2ccccc12)NC(=O)[C@H](CCCCN)NC(=O)[C@@H](N)CC(C)C)C(=O)N[C@H](C(=O)N[C@@H](CO)C(=O)N[C@@H](Cc1c[nH]c2ccccc12)C(=O)N[C@@H](C)C(=O)N[C@@H](CCCCN)C(=O)N[C@@H](CCCCN)C(=O)N[C@H](C(=O)N[C@@H](CC(C)C)C(N)=O)C(C)C)C(C)C` [LKWKSIVSWAKKVL], the MIC is not below 75.9 µM in assay [22]; 0.839 µM (≈ 1.41 µg/mL) with Citrobacter koseri; not below 75.9 µM in the assay with Enterococcus faecium; 1.68 µM (≈ 2.83 µg/mL) in the assay on Escherichia coli BL21; 0.593 µM (≈ 0.999 µg/mL) in the assay on Escherichia coli JM109; 4.74 µM (≈ 8 µg/mL) in [23]. In addition, the MIC in [24] is not below 75.9 µM; in the assay with Pseudomonas aeruginosa, 26.8 µM (≈ 45.2 µg/mL); in the assay on Salmonella enterica, 3.35 µM (≈ 5.65 µg/mL); in [25] it was 2.37 µM (≈ 4 µg/mL); in assay [26] it was 3.35 µM (≈ 5.65 µg/mL); in [27], 3.35 µM (≈ 5.65 µg/mL). Moreover, the MIC was found to be 0.296 µM (≈ 0.5 µg/mL) in the assay on Staphylococcus xylosus and 2.37 µM (≈ 4 µg/mL) in assay [28].

As to `CC[C@H](C)[C@H](NC(=O)[C@H](CCCN=C(N)N)NC(=O)[C@@H](NC(=O)[C@@H](NC(=O)[C@@H](NC(=O)[C@H](CCCN=C(N)N)NC(=O)[C@@H](NC(=O)[C@H](CCCN=C(N)N)NC(=O)[C@@H](N)CCCN=C(N)N)[C@@H](C)CC)[C@@H](C)CC)[C@@H](C)CC)[C@@H](C)CC)C(=O)N[C@@H](CCCN=C(N)N)C(=O)N[C@@H](CCCN=C(N)N)C(N)=O` [RRIRIIIRIRR], the MIC is 1.41 µM (≈ 2.15 µg/mL) in the assay on Candida albicans; 2 µM (≈ 3.04 µg/mL) in [29]; 4 µM (≈ 6.08 µg/mL) in [30]; 1 µM (≈ 1.52 µg/mL) in [31]; 4 µM (≈ 6.08 µg/mL) against Escherichia coli 1005; 2 µM (≈ 3.04 µg/mL) in assay [32]. In addition, the MIC in assay [33], in assay [20], in assay [9], in assay [11] and in assay [15] was 4 µM (≈ 6.08 µg/mL) throughout.

Take `CC(=O)N[C@@H](CCCN=C(N)N)C(=O)N[C@@H](CCCN=C(N)N)C(=O)N[C@@H](CCCN=C(N)N)C(=O)N[C@@H](Cc1c[nH]c2ccccc12)C(=O)N[C@@H](CCCN=C(N)N)C(=O)N[C@@H](CCCCN)C(=O)N[C@@H](CCCN=C(N)N)C(=O)N[C@@H](CCCN=C(N)N)C(=O)N[C@@H](Cc1c[nH]c2ccccc12)C(=O)N[C@@H](Cc1c[nH]c2ccccc12)C(=O)N[C@@H](Cc1c[nH]c2ccccc12)C(N)=O` [RRRWRKRRWWW]: the MIC in assay [17] is 17.5 µM (≈ 32.7 µg/mL); against Pseudomonas aeruginosa, 24.8 µM (≈ 46.3 µg/mL); in [9], 17.5 µM (≈ 32.7 µg/mL); in assay [34], 24.8 µM (≈ 46.3 µg/mL).
